Columns and labels:
[1] = tested on: Mus musculus; test: Antiinflammatory activity in xylene-induced Kunming mouse ear edema model assessed as suppression of ear swelling at 300 mg/kg, po; assay type: functional
[2] = tested on: Mus musculus; test: Antiinflammatory activity in xylene-induced Kunming mouse ear edema model assessed as suppression of ear swelling at 75 mg/kg, po; assay type: functional
[3] = tested on: Mus musculus; test: Antiinflammatory activity in xylene-induced Kunming mouse ear edema model assessed as suppression of ear swelling at 150 mg/kg, po; assay type: functional
[4] = tested on: Mus musculus; test: Cardiotoxicity in Kunming mouse assessed as pathological changes at 150 mg/kg, po after 12 days; assay type: toxicity, organism-based; design: dose 150 mg/kg, route oral; conditions: in vivo, 288 h
[5] = tested on: Mus musculus; test: Antiinflammatory activity in xylene-induced Kunming mouse ear edema model assessed as suppression of ear swelling at 100 mg/kg, po; assay type: functional
[6] = tested on: Mus musculus; test: Cardiotoxicity in Kunming mouse assessed as pathological changes at 100 mg/kg, po after 12 days; assay type: toxicity, organism-based; design: dose 100 mg/kg, route oral; conditions: in vivo, 288 h

Row | SMILES | Activity [1] [%] | Activity [2] [%] | also measured
1 | COc1cc(/C=C(/C(=O)O)c2ccc(S(C)(=O)=O)cc2)ccc1O | 9.97 |  | 
2 | COc1ccc(/C=C(/C(=O)O)c2ccc(S(C)(=O)=O)cc2)cc1OC | 15.92 |  | 
3 | CCOC(=O)/C(=C/c1ccc(OC(C)=O)c(Br)c1)c1ccc(S(C)(=O)=O)cc1 |  | 0 | 
4 | CC(=O)Oc1ccc(/C=C(/C(=O)O)c2ccc(S(C)(=O)=O)cc2)cc1 | 44.75 | 23.34 | Activity [3]: 32.87%
5 | CCOC(=O)/C(=C/c1ccc(O)c(OC)c1)c1ccc(S(C)(=O)=O)cc1 | 34.62 |  | 
6 | COc1cc(/C=C(/C(=O)O)c2ccc(S(C)(=O)=O)cc2)ccc1OC(C)=O | 45.29 | 12.38 | Activity [4]: Non-toxic; Activity [3]: 26.12%
7 | COc1cc(/C=C(/C(=O)O)c2ccccc2)ccc1OC(C)=O | 21.86 |  | 
8 | CCOC(=O)/C(=C/c1ccc(OC(C)=O)c(OC)c1)c1ccc(S(C)(=O)=O)cc1 | 24.11 |  | 
9 | CS(=O)(=O)c1ccc(/C(=C\c2ccccc2)C(=O)O)cc1 | 17.49 |  | 
10 | COc1ccc2c(c1)c(CC(=O)O)c(C)n2C(=O)c1ccc(Cl)cc1 [INDOMETHACIN] |  |  | Activity [5]: 37.03%; Activity [6]: Non-toxic

Source: ChEMBL document CHEMBL1681649, “Design, synthesis and biological evaluation of novel 4-hydroxybenzene acrylic acid derivatives” (Bioorg Med Chem Lett, 2011)
